# Assay results taken from patent EP0804408B1, “NOVEL 4-SUBSTITUTED 2,6-DI-TERT-BUTYLPHENOL COMPOUNDS, PHARMACEUTICAL COMPOSITIONS CONTAINING SAME AND PREPARATION METHOD THEREFOR” (priority 1994, dated 1996).
# Tested on: NO-synthase inductible (iNOS)
# Test: iNOS induction test: nitrites in RAW264.7 supernatants by Griess reaction after nitrate reduction
# Format: cell-based, murins
# Conditions: IFNγ + LPS
# Text: Cette hypothèse a été contrôlée en dosant les nitrites dans des surnageants de culture de macrophages murins de lignées activées en présence de AVF1. Les nitrites ont été dosés par la réaction de Griess après réduction de tous le nitrates grâce à la nitrate réductase de Pseudomonas oleoverans (Granger et al., J. Immunol., 1991, 146, 1294-1302). La spécificité de la réaction a été prouvée par l'emploi d'un inhibiteur spécifique de la synthèse du monoxyde d'azote, la N^G-monométhyl-L-arginine (L-NMMA).
# Le test d'induction iNOS consiste à ensemencer les macrophages RAW264.7 dans des plaques à 24 puits à raison de 1 x 10^6 sous 1,6 ml. Après 24 heures de culture permettant d'obtenir un tapis cellulaire complet, AVF1, dilué de raison 10 dans des des doses ne donnant pas de toxicité cellulaire (de 10^-6 à 10^-8 %), est ajouté dans 100 µl par cupule soit sur des macrophages sans activateur, avec ou sans l'inhibiteur de iNOS (action directe du produit sur les macrophages) soit en présence des inducteurs, avec ou sans inhibiteur (action du produit sur des macrophages activés).
# Après 24 heures de culture, les surnageants sont prélevés, centrifugés 10 minutes à 100 g à température ambiantes pour éliminer les éventuels débris cellulaires puis utilisés pour le dosage des nitrites.
# Deux volumes des surnageants clarifiés sont réduits en présence d'un volume d'une suspension de Pseudomonas oleovorans à 100 mg/ml et un volume de D-MEM sans rouge de phénol. Après une incubation de 90 minutes à 37°C sans agitation, les mélanges sont centrifugés 5 minutes à 4 000 g pour éliminer les bactéries et dilués au 1/5 et au 1/10 en eau distillée stérile.
# 100 µl des échantillons réduits et dilués sont distribués dans des séries de 2 puits dans une plaque ELISA (maxicorp, Nunc.). 200 µl du réactif de Griess (mélange ex-temporané volume à volume des solutions de sulfamide à 1,5 g/100 ml de HCl 1,2 N (87,1 mM) - réactif A - et de naphtylènediamine à 0,15 g/100 ml d'eau stérile (5,78 mM) - réactif B -) sont ajoutés.
# Cent autres µl d'échantillon servant de blanc de DO sont distribués et mélangés à 200 µl d'un mélange ex-temporané volume à volume d'eau distillée et du réactif colorimétrique A.
# Après 30 minutes à température ambiante à l'obscurité, la densité optique (DO) des échantillons est lue à 540 nm au lecteur de plaque pour ELISA.
# • Les contrôles du système d'induction iNOS sont composés de : • . Témoin cellules consistant en des macrophages ne recevant que du milieu de culture. • . Témoin d'induction consistant en des macrophages traités par 100 µl de lipopolysaccharide (LPS à 4 µg/ml, Difco) et par 100 µl d'interféron-γ recombinant (IFN-γ à 1 µU/ml, Boerhinger-Mannheim) afin d'activer la iNOS (Schmidt et al., Mol. Pharmacol., 1992, 41, 614-624). Les solutions mères de LPS et de IFN-γont été conservées respectivement à +4°C et à -20°C avant utilisation. • . Témoin d'inhibition spécifique pour prouver que les nitrites dosés proviennent de l'activation de la iNOS. Il consiste à incorporer à la culture un inhibiteur spécifique, la L-NMMA (N^G-monométhyl-L-arginine, Calbiochem) (Hibbs et al., Science, 1987, 235, 473-476) à des concentrations de raison 10 allant de 3 à 300 µM. Cette solution a été conservée sous parties aliquotes à -20°C avant utilisation. • Les contrôles de la réaction de Greiss sont composés de : • . Une solution de nitrate de sodium qui permet de contrôler l'activité nitrate-réductase des bactéries. • . Une gamme étalon de nitrite de sodium qui permet de doser les nitrites dans les échantillons. • Le blanc de DO de la gamme étalon contenant 100 µl d'eau distillée et 200 µl du mélange des réactifs A et B.
# [1] = L-NMMA (300 µM) alone (no AVF1)
smiles,measurement,setting,value
"CNC(=N)NCCC[C@H](N)C(=O)O [L-NMMA, N^G-monométhyl-L-arginine, reference compound]",Concentration moyenne en nitrites en µM sur 2 échantillons,L-NMMA (3 µM) alone (no AVF1),"20,9 µM"
same,Pourcentage d'inhibition de la production de nitrite,L-NMMA (3 µM) alone (no AVF1),0%
same,Concentration moyenne en nitrites en µM sur 2 échantillons,L-NMMA (30 µM) alone (no AVF1),"14,7 µM"
same,Pourcentage d'inhibition de la production de nitrite,L-NMMA (30 µM) alone (no AVF1),29%
same,Concentration moyenne en nitrites en µM sur 2 échantillons,[1],"9,3 µM"
same,Pourcentage d'inhibition de la production de nitrite,[1],55%
